Experimental data from patent publication US20070249673A1, “Method for administering tolperisone” (priority 2006, published 2007).

Assay: Pharmacokinetic profile of tolperisone after single and multi-dosing (150 mg regimen over 7 days) in healthy subjects under fasted and fed conditions
Details: for AUC(0-t) / AUC(inf) / Cmax / t½ / λz / AUC(0-6): mean ± SD; for Tmax: median
[1] = Day 1 - 0800 Dose, Fasted, Females
[2] = Day 1 - 0800 Dose, Fasted, Males
[3] = Day 1 - 0800 Dose, Fasted, both sexes
[4] = Day 1 - 0800 Dose, Fed, Females
[5] = Day 1 - 0800 Dose, Fed, both sexes
[6] = Day 1, fed vs fasted, both sexes
[7] = Day 2 - 2200 Dose, Fasted, Females
[8] = Day 2 - 2200 Dose, Fasted, Males
[9] = Day 2 - 2200 Dose, Fasted, both sexes
[10] = Day 2 - 2200 Dose, Fed, Females
[11] = Day 2 - 2200 Dose, Fed, both sexes
[12] = Day 7 - 0800 Dose, Fasted, Females
[13] = Day 7 - 0800 Dose, Fasted, Males
[14] = Day 7 - 0800 Dose, Fasted, both sexes
[15] = Day 7 - 0800 Dose, Fed, Females
[16] = Day 7 - 0800 Dose, Fed, both sexes
[17] = Day 7 - 2200 Dose, Fasted, Females
[18] = Day 7 - 2200 Dose, Fasted, Males
[19] = Day 7 - 2200 Dose, Fasted, both sexes
[20] = Day 7 - 2200 Dose, Fed, Females
[21] = Day 7 - 2200 Dose, Fed, both sexes

Experimental: Dosing Regimen: Subjects in each cohort received tolperisone according to the following regimen.
Blood samples for the measurement of the plasma concentrations of tolperisone and metabolites M1 (4-hydroxymethyltolperisone) and M4 (4-carboxy-tolperisone) were collected at the times shown in Table 8.
Bioanalytical: Plasma concentrations of tolperisone and metabolites M1 and M4 were measured using a validated LC/MS/MS assay by Pharm-analyt Laboratory, Baden Austria. The limits of quantitation (LOQ) for tolperisone, Mi, and M4 in plasma were 0.2 ng/ML, and 0.01 μg/mL, respectively.
Pharmacokinetic Analyses: Pharmacokinetic parameters for tolperisone, M1, and M4 were calculated using non-compartmental analysis. Only plasma concentrations greater than or equal to the LOQ for the respective assay were used in the pharmacokinetic analyses. Actual blood sampling times were used in all pharmacokinetic analyses. […] All pharmacokinetic calculations were done using SAS® for Windows® Version 9.1.3.
The maximum plasma concentration (Cmax) and time to Cmax (Tmax) were taken directly from the data. The elimination rate constant, λz, was calculated as the negative of the slope of the terminal log-linear segment of the plasma concentration-time curve. The range of data to be used for each subject and treatment was determined by visual inspection of a semi-logarithmic plot of concentration versus time. Elimination half-life (t½) was calculated according to the following equation: [formula] Area under the curve to the final sample with a concentration greater than or equal to the LOQ [(AUC(0-t)] was calculated using the linear trapezoidal method and extrapolated to infinity [AUC(inf)] using: [formula] where Ctf is the final concentration≧LOQ.
The maximum plasma concentration (Cmax) and time to Cmax (Tmax) were taken directly from the data.
The maximum plasma concentration (Cmax) and time to Cmax (Tmax) were taken directly from the data. The elimination rate constant, λz, and half-life, t½, were calculated as described for the 0800 dose on Day 1 (above). Areas under the curve to the final sample with a concentration greater than or equal to the LOQ [(AUC(O-t)] and over the 6-hour dosing interval [AUC(0-6)] were calculated using the linear trapezoidal method.

CC(CN1CCCCC1)C(=O)c1ccc(C(=O)O)cc1 (racemic) [Metabolite M4, 4-carboxy-tolperisone]
AUC(0-t) [1]: 2.79 ± 0.37 (3) h · μg/mL | AUC(inf) [1]: 2.86 ± 0.40 (3) h · μg/mL | Cmax [1]: 1.31 ± 0.05 (3) μg/mL | t½ [1]: 0.99 ± 0.04 (3) h | λz [1]: 0.6981 ± 0.0253 (3) h^−1 | Tmax [1]: 1.00 (3) h | AUC(0-t) [2]: 2.26 ± 0.42 (7) h · μg/mL | AUC(inf) [2]: 2.34 ± 0.44 (7) h · μg/mL | Cmax [2]: 1.31 ± 0.44 (7) μg/mL | t½ [2]: 1.10 ± 0.08 (7) h | λz [2]: 0.6321 ± 0.0488 (7) h^−1 | Tmax [2]: 0.75 (7) h | AUC(0-t) [3]: 2.42 ± 0.46 (10) h · μg/mL | AUC(inf) [3]: 2.49 ± 0.48 (10) h · μg/mL | Cmax [3]: 1.31 ± 0.36 (10) μg/mL | t½ [3]: 1.07 ± 0.088 (10) h | λz [3]: 0.6519 ± 0.0524 (10) h^−1 | Tmax [3]: 0.88 (10) h | AUC(0-t) [4]: 2.74 ± 0.74 (4) h · μg/mL | AUC(inf) [4]: 2.94 ± 0.84 (4) h · μg/mL | Cmax [4]: 1.02 ± 0.18 (4) μg/mL | t½ [4]: 1.16 ± 0.21 (4) h | λz [4]: 0.6189 ± 0.1389 (4) h^−1 | Tmax [4]: 2.00 (4) h | AUC(0-t) (Day 1 - 0800 Dose, Fed, Males): 2.32 ± 0.70 (6) h · μg/mL | AUC(inf) (Day 1 - 0800 Dose, Fed, Males): 2.43 ± 0.76 (6) h · μg/mL | Cmax (Day 1 - 0800 Dose, Fed, Males): 1.27 ± 0.45 (6) μg/mL | t½ (Day 1 - 0800 Dose, Fed, Males): 1.17 ± 0.19 (6) h | λz (Day 1 - 0800 Dose, Fed, Males): 0.6047 ± 0.0938 (6) h^−1 | Tmax (Day 1 - 0800 Dose, Fed, Males): 0.88 (6) h | AUC(0-t) [5]: 2.49 ± 0.70 (10) h · μg/mL | AUC(inf) [5]: 2.64 ± 0.79 (10) h · μg/mL | Cmax [5]: 1.17 ± 0.38 (10) μg/mL | t½ [5]: 1.16 ± 0.19 (10) h | λz [5]: 0.6104 ± 0.1067 (10) h^−1 | Tmax [5]: 1.50 (10) h | decrease in the mean value for Cmax on administration with food [6]: 11% | increase in the mean value for AUC(inf) on administration with food [6]: 6% | Cmax [7]: 0.96 ± 0.48 (3) μg/mL | Tmax [7]: 1.00 (3) h | Cmax [8]: 0.53 ± 0.32 (7) μg/mL | Tmax [8]: 1.50 (7) h | Cmax [9]: 0.66 ± 0.40 (10) μg/mL | Tmax [9]: 1.25 (10) h | Cmax [10]: 0.82 ± 0.41 (4) μg/mL | Tmax [10]: 1.25 (4) h | Cmax (Day 2 - 2200 Dose, Fed, Males): 0.75 ± 0.42 (6) μg/mL | Tmax (Day 2 - 2200 Dose, Fed, Males): 1.00 (6) h | Cmax [11]: 0.78 ± 0.40 (10) μg/mL | Tmax [11]: 1.00 (10) h | mean AUC(0-6) under fed conditions lower than fasted (Day 7, 0800 dose, both sexes): 3% | mean Cmax under fed conditions lower than fasted (Day 7, 0800 dose, both sexes): 28% | AUC(0-6) [12]: 2.86 ± 0.42 (3) h · μg/mL | Cmax [12]: 1.57 ± 0.25 (3) μg/mL | t½ [12]: 1.12 ± 0.08 (3) h | λz [12]: 0.6226 ± 0.0416 (3) h^−1 | Tmax [12]: 0.75 (3) h | AUC(0-6) [13]: 2.06 ± 0.39 (7) h · μg/mL | Cmax [13]: 1.04 ± 0.32 (7) μg/mL | t½ [13]: 1.20 ± 0.07 (7) h | λz [13]: 0.5809 ± 0.0358 (7) h^−1 | Tmax [13]: 0.75 (7) h | AUC(0-6) [14]: 2.30 ± 0.54 (10) h · μg/mL | Cmax [14]: 1.19 ± 0.38 (10) μg/mL | t½ [14]: 1.17 ± 0.081 (10) h | λz [14]: 0.5934 ± 0.0406 (10) h^−1 | Tmax [14]: 0.75 (10) h | AUC(0-6) [15]: 2.31 ± 0.39 (4) h · μg/mL | Cmax [15]: 0.95 ± 0.45 (4) μg/mL | t½ [15]: 1.10 ± 0.20 (3) h | λz [15]: 0.6452 ± 0.1199 (3) h^−1 | Tmax [15]: 2.00 (4) h | AUC(0-6) (Day 7 - 0800 Dose, Fed, Males): 2.17 ± 0.57 (6) h · μg/mL | Cmax (Day 7 - 0800 Dose, Fed, Males): 0.80 ± 0.24 (6) μg/mL | t½ (Day 7 - 0800 Dose, Fed, Males): 1.21 ± 0.30 (6) h | λz (Day 7 - 0800 Dose, Fed, Males): 0.5978 ± 0.1116 (6) h^−1 | Tmax (Day 7 - 0800 Dose, Fed, Males): 1.75 (6) h | AUC(0-6) [16]: 2.23 ± 0.49 (10) h · μg/mL | Cmax [16]: 0.86 ± 0.32 (10) μg/mL | t½ [16]: 1.17 ± 0.26 (09) h | λz [16]: 0.6136 ± 0.1092 (09) h^−1 | Tmax [16]: 2.00 (10) h | Cmax [17]: 1.40 ± 0.21 (3) μg/mL | Tmax [17]: 1.50 (3) h | Cmax [18]: 0.844 ± 0.243 (7) μg/mL | Tmax [18]: 1.03 (7) h | Cmax [19]: 1.01 ± 0.35 (10) μg/mL | Tmax [19]: 1.27 (10) h | Cmax [20]: 0.99 ± 0.25 (4) μg/mL | Tmax [20]: 1.25 (4) h | Cmax (Day 7 - 2200 Dose, Fed, Males): 0.94 ± 0.25 (6) μg/mL | Tmax (Day 7 - 2200 Dose, Fed, Males): 1.04 (6) h | Cmax [21]: 0.96 ± 0.24 (10) μg/mL | Tmax [21]: 1.04 (10) h | accumulation (increase in Cmax over the seven days of dosing) (seven days of dosing, up to 150 mg three times daily): little or no accumulation | mean elimination half-life (summary, not dependent on sex, food or duration of dosing): ~1.1 h
